According to ChEMBL document CHEMBL1139651, “Antiarrhythmic activity of 4,6-di(het)aryl-5-nitro-3,4-dihydropyrimidin-(1H)-2-ones and its effects on arterial pressure in rats” (2006):

Test system: Rattus norvegicus
Assay: Antiarrhythmic activity in iv dosed rat
Type: functional
Details: Heart; for minimal effective dose: read-out: MED

Row | Structure (SMILES) | LD50 [mg/kg] | minimal effective dose [µg/kg] | ED50 [mg/kg]
1 | O=C1NC(c2ccccc2)=C([N+](=O)[O-])C(c2cccc([N+](=O)[O-])c2)N1 (stereo not given) | > 1000 | 0.045 | 
2 | COc1ccc(CCN(C)CCCC(C#N)(c2ccc(OC)c(OC)c2)C(C)C)cc1OC (stereo not given) |  |  | 1.1
3 | O=C1NC(c2ccccc2)=C([N+](=O)[O-])C(c2cccs2)N1 (stereo not given) | > 1000 | 3500 | 
4 | O=C1NC(c2ccccc2)=C([N+](=O)[O-])C(c2cccc(F)c2)N1 (stereo not given) | > 5000 | 0.35 | 
5 | O=C1NC(c2ccccc2)=C([N+](=O)[O-])C(c2ccc(O)cc2)N1 (stereo not given) | > 5000 | 35 | 
6 | COC(=O)C1=C(C)NC(C)=C(C(=O)OC)C1c1ccccc1[N+](=O)[O-] [NIFEDIPINE] | 210 | 3500 | 
7 | O=C1NC(c2ccccc2)=C([N+](=O)[O-])C(c2cccnc2)N1 (stereo not given) | > 1000 | 35 | 
8 | O=C1NC(c2ccccc2)=C([N+](=O)[O-])C(c2ccccc2)N1 (stereo not given) | > 5000 | 35 | 
